Measurements reported in patent US5756505A, “N-acylpiperazine derivative, antibacterial drug and anti-ulcer drug” (Shiseido Co., Ltd., priority 1995, dated 1998).
Read-outs that look alike come from different tables or passages of the source.

Legend:
stress ulcer formation = assay: WIS: Restraint and Water Immersion Stress-Induced Ulcer Inhibition Test; assay type: in vivo, rat (male Crj:SD or Slc:SD); settings: rat; for WIS: ulcer formation inhibitory rate: 100 mg/kg oral, 7 hours stress; for anti-ulcer effect (in words): in vivo
Protocol: WIS: Restraint and Water Immersion Stress-Induced Ulcer Inhibition Test
The degree of inhibition of the stress ulcer formation is tested.
Male Crj:SDor Slc:SD rats (6 to 7-week-old) were fasted overnight, but allowed free access to water. Each group has 5 to 8 of these rats. The sample compound was dissolved or suspended in an aqueous solution of 0.3% sodium carboxymethylcellulose or 0.05% Tween 80 and then was orally administered (100 mg/10 ml/kg). To a control group, the vehicle was administered. 10 minuts later, the rats were placed in a stress cage and immersed to the level of xipfoid process in a water bath (21° C.) for 7 hours. At the end of the stress, the rats were sacrificed by inhalation of ether or carbon dioxide. Then, the stomach of each was removed, inflated by injecting 10 ml of 5% formalin neutral buffer solution, and immersed in 1% formalin neutral buffer solution for 30 minutes or more to be fixed. The stomach was incised along the greater curvature and then the length of each erosion in the glandular portion was determined under dissecting microscope. The sum of the length of erosions per stomach was defined as ulcer index (UI).
The effect obtained when 100 mg/kg of the sample compound had been administered was expressed as ulcer formation inhibitory rate (%) as follows:
ulcer formation inhibitory rate (%)=[1-(UI in sample group/UI in control group)]×100

[1] = MTT: Cell Damaging and Protecting Effect Test; assay type: cell-based, rabbit (male Japanese White); settings: rabbit, gastric mucosal cells
Text: MTT: Cell Damaging and Protecting Effect Test
It is confirmed that there is no toxicity in cell level. Those having a toxicity in cell level are inappropriate as an anti-ulcer drug.
A male Japanese White rabbit (2.5 to 3 kg) was anesthetized to death by Nembutal™ and, immediately thereafter, its stomach was removed. The greater curvature of the stomach was incised so as to remove the stomach contents therefrom. After the mucosal surface was washed with HBSS (Hanks' Balanced Salt Solution), the stomach in ice-cooled HBSS was transferred to a laboratory. Then, after the pyloric antrum was removed, the gastric corpus mucosa was separated by a spatula and then minced into 2 to 3 mm^3 pieces in BME (Basal Medium Eagle). Thereafter, these pieces were shaken at 120 to 130 cycles/minute for 15 minutes at 37° C. in BME 60ml containig 280 U/ml of dispase and 30 to 50 U/ml of collagenase. Here, the concentration of collagenase was appropriately changed for each lot in view of the state of cells. The pieces were washed twice with EBSS (Earle's Balanced Salt Solution) containing 1 mM of EDTA and then shaken in MEM (Minimum Essential Medium) containing 1 mM of EDTA at 37° C. for 5 minutes. Subsequently, they were shaken in the dispase and collagenase having the same concentrations as those mentioned above for 15 minutes so as to remove the supernatant and then further shaken at 37° C. for 50 to 60 minutes at 120 to 130 cycles/minute. Then, after being washed twice with HBSS, Ham F12 containing 2% of Ultrocer G™ was used to attain the concentration of 1×10^6 cells/ml. Thus formed suspension was dispensed in each well of a 96-well plate by 200 μl. The plate was incubated in the atmosphere composed of 5% CO2 and 95% air at 37° C. for three days so as to attain a confluent state and then subjected to MTT assay.
The sample compound was dissolved in DMSO so as to attain a concentration of 10^-2 M and then diluted with HBSS containing 2% of Ultrocer G™ so as to attain a final concentration of 10^-4 M. To each group, which 8 wells were used for, 10 μl of MTT reagent were added immediately after 100 μl of the medium in each well were exchanged for same volume of the resulting solution of the sample compound. After being incubated in an atmosphere composed of 5% CO2 and 95% air at 37° C. for 4 hours, thus formed solution was centrifuged and then its supernatant was discarded. Subsequently, 100 μl of 100% ethanol were added to the residue so as to dissolve MTT formazan. Then, the absorbance (OD: 570 to 630) was measured by a microplate reader. This method utilizes a phenomenon in which MTT is changed to MTT formazan only by mitochondria of living cells so as to change color.
The cell damaging or cell protecting effect of the sample compound at the final concentration of 10^-4 M was expressed as cell damaging rate (%) as follows:
cell damaging rate (%)=[1-(absorbance in sample group/absorbance in control group)]×100
Accordingly, the smaller value is better in the cell damaging rate.

[2] = final concentration 10^-4 M, 4 hours, smaller value is better, read-out: MTT: cell damaging rate

| SMILES | WIS: ulcer formation inhibitory rate (stress ulcer formation) [%] | cytotoxicity at 4 h, 100 µM [1, 2] [%] | anti-ulcer effect (in words) (stress ulcer formation) | cytotoxicity at 4 h, 100 µM ([1]; MTT: cell damaging rate) [%] |
| --- | --- | --- | --- | --- |
| CC(C)CN1CCN(C(=O)c2ccc(OCc3ccc(F)cc3)cc2)CC1.Cl [Example 2, 1-[4-(4-fluorobenzyloxy)benzoyl]-4-isobutylpiperazine hydrochloride] | 79 |  |  |  |
| CC(C)CN1CCN(C(=O)c2ccc(OCc3ccccc3)cc2)CC1 [Example 3, 1-(4-benzyloxybenzoyl)-4-isobutylpiperazine] | 69 | -16 |  |  |
| C=C(C)Cc1cc(C(=O)N2CCN(CC(C)C)CC2)ccc1OCc1ccc(F)cc1.Cl [Example 4, 1-[4-(4-fluorobenzyloxy)-3-methallylbenzoyl]-4-isobutylpiperazine hydrochloride] | 65 | -67 |  |  |
| CC(C)CN1CCN(C(=O)c2ccc(OCc3ccc(F)cc3)cc2)CC1 [Example 5, 1-[4-(4-fluorobenzyloxy)benzoyl]-4-isobutylpiperazine] | 59 |  |  |  |
| CC(C)Cc1cc(C(=O)N2CCN(C(=O)C(C)C)CC2)ccc1OCc1ccc(F)cc1 [Example 6, 1-[4-(4-fluorobenzyloxy)-3-isobutylbenzoyl]-4-isobutyrylpiperazine] | 56 | -29 | sufficient effects |  |
| CC(C)CN1CCN(C(=O)c2ccc(OCc3ccc(F)cc3)c([N+](=O)[O-])c2)CC1.Cl [Example 8, 1-[4-(4-fluorobenzyloxy)-3-nitrobenzoyl]-4-isobutylpiperazine hydrochloride] | 35 | -65 |  |  |
| CC(C)Cc1cc(C(=O)N2CCN(CCO)CC2)ccc1OCc1ccc(F)cc1 [Example 9, 1-[4-(4-fluorobenzyloxy)-3-isobutylbenzoyl]-4-(2-hydroxyethyl)piperazine] | 88 | 26 | sufficient effects |  |
| Cc1cccc(COc2ccc(C(=O)N3CCN(CC(C)C)CC3)cc2CC(C)C)c1F.Cl [Example 12, 1-[4-(2-fluoro-3-methylbenzyloxy)-3-isobutylbenzoyl]-4-isobutylpiperazine hydrochloride] | 83 | -15 |  |  |
| CC(C)Cc1cc(C(=O)N2CCN(CC(C)C)CC2)ccc1OCc1ccc([N+](=O)[O-])cc1.Cl [Example 13, 1-isobutyl-4-[3-isobutyl-4-(4-nitrobenzyloxy)benzoyl]piperazine hydrochloride] | 77 | -66 |  |  |
| COc1ccc(COc2ccc(C(=O)N3CCN(CC(C)C)CC3)cc2CC(C)C)cc1 [Example 14, 1-isobutyl-4-[3-isobutyl-4-(4-methoxybenzyloxy)benzoyl]piperazine] | 76 | 11 |  |  |
| CC(C)Cc1cc(CC(=O)N2CCN(CC(C)C)CC2)ccc1OCc1ccccc1 [Example 15, 1-(4-benzyloxy-3-isobutylphenylacetyl)-4-isobutylpiperazine] | 71 |  | sufficient effects were observed | -55 |
| CC(C)Cc1cc(C(=O)N2CCN(CC(C)C)CC2)ccc1OCc1ccccc1 [Example 16, 1-(4-benzyloxy-3-isobutylbenzoyl)-4-isobutylpiperazine] | 72 | -98 |  |  |
| CC(C)Cc1cc(C(=O)N2CCN(CC(C)C)CC2)ccc1OCc1ccc(Cl)cc1 [Example 17, 1-[4-(4-chlorobenzyloxy)-3-isobutylbenzoyl]-4-isobutylpiperazine] | 66 | -18 |  |  |
| CC(C)Cc1cc(C(=O)N2CCN(CC(C)C)CC2)ccc1OCc1ccccc1F [Example 18, 1-[4-(2-fluorobenzyloxy)-3-isobutylbenzoyl]-4-isobutylpiperazine] | 64 |  |  |  |
| CC(C)Cc1cc(C(=O)N2CCN(CC(C)C)CC2)ccc1OCc1ccccc1F.Cl [Example 19, 1-[4-(2-fluorobenzyloxy)-3-isobutylbenzoyl]-4-isobutylpiperazine hydrochloride] | 64 |  |  |  |
| CC(C)Cc1cc(CN2CCN(CC(C)C)CC2)ccc1OCc1ccc(F)cc1.Cl.Cl [Example 20, 1-[4-(4-fluorobenzyloxy)-3-isobutylbenzyl]-4-isobutylpiperazine dihydrochloride] | 82 | 45 | effects were observed |  |
| CC(C)Cc1cc(C(=O)N2CCN(CC(C)C)CC2)ccc1OCc1ccc(F)cc1 [Example 21, 1-[4-(4-fluorobenzyloxy)-3-isobutylbenzoyl]-4-isobutylpiperazine] | 84 |  | improved |  |
| CC(C)Cc1cc(C(=O)N2CCN(CC(C)C)CC2)ccc1OCc1ccc(F)cc1.Cl [Example 22, 1-[4-(4-fluorobenzyloxy)-3-isobutylbenzoyl]-4-isobutylpiperazine hydrochloride] | 85 |  | improved |  |
| CC(C)Cc1cc(C(=O)N2CCN(CC(C)C)CC2)ccc1OCc1ccc(F)c(F)c1.Cl [Example 23, 1-[4-(3,4-difluorobenzyloxy)-3-isobutylbenzoyl]-4-isobutylpiperazine hydrochloride] | 83 | 28 |  |  |
| CC(C)Cc1cc(C(=O)N2CCN(CC(C)C)CC2)ccc1OCc1ccc(F)cc1F.Cl [Example 24, 1-[4-(2,4-difluorobenzyloxy)-3-isobutylbenzoyl]-4-isobutylpiperazine hydrochloride] | 72 |  |  |  |
| CC(C)Cc1cc(C(=O)N2CCN(CC(C)C)CC2)ccc1OCc1ccc(F)cc1.O=C(O)C(=O)O [Example 25, 1-[4-(4-fluorobenzyloxy)-3-isobutylbenzoyl]-4-isobutylpiperazine oxalate] | 70 |  |  |  |
| CC(C)Cc1cc(C(=O)N2CCN(CC(C)C)CC2)ccc1OCc1ccc(F)c(F)c1 [Example 26, 1-[4-(3,4-difluorobenzyloxy)-3-isobutylbenzoyl]-4-isobutylpiperazine] | 63 |  |  |  |
| CC(C)Cc1cc(C(=O)N2CCN(CC(C)C)CC2)ccc1OCc1ccc(F)cc1F [Example 27, 1-[4-(2,4-difluorobenzyloxy)-3-isobutylbenzoyl]-4-isobutylpiperazine] | 60 |  |  |  |
